According to publication PMC3872530 (Molecular microbiology, 2013):

Assays:
Assay in all cases: whole-cell EPR of [2Fe-2S] cluster
Assay type in all cases: cell-based
EcSoxR = molecular target: T1, EcSoxR (Escherichia coli, UniProt P0ACS2); settings: oxidant, 40 min, E. coli XA90, EPR at 15 K
T1 sequence (P0ACS2 1-154): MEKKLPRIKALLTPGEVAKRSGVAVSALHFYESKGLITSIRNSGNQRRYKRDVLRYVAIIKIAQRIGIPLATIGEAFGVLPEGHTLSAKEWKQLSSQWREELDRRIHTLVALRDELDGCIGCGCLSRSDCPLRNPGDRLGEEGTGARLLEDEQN

ScSoxR = molecular target: T2, ScSoxR (Streptomyces coelicolor, UniProt Q9S255); settings: oxidant; 50 uM, 40 min, E. coli XA90, EPR at 15 K
T2 sequence (Q9S255 1-175): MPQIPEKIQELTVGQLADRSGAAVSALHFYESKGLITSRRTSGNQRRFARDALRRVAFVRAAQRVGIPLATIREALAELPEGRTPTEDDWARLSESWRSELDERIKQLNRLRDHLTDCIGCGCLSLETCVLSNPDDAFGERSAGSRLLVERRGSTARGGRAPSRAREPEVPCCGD

PaSoxR = PaSoxR (Pseudomonas aeruginosa, UniProt Q51506); settings: oxidant, 40 min, E. coli XA90, EPR at 15 K
Sequence of PaSoxR (Q51506 whole entry): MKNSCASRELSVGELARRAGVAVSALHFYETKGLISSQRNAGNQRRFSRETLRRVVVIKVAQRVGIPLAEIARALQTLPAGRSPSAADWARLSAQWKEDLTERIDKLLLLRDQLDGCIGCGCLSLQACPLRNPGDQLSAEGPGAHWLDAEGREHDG

Row | Compound | whole-cell EPR of [2Fe-2S] cluster (EcSoxR; 50 uM) | whole-cell EPR of [2Fe-2S] cluster (ScSoxR) | whole-cell EPR of [2Fe-2S] cluster (PaSoxR; 50 uM) | whole-cell EPR of [2Fe-2S] cluster (EcSoxR; 100 uM) | whole-cell EPR of [2Fe-2S] cluster (PaSoxR; 100 uM, partial effect)
1 | C[n+]1c2ccccc2nc2ccccc21 [PMS, phenazine methosulfate] | The spectra disappeared upon treatment with PQ and PMS | The cluster was oxidized to its EPR-silent state when the cells were treated with PMS | PMS always silenced the spectral peaks | – | –
2 | C[n+]1ccc(-c2cc[n+](C)cc2)cc1 [PQ, paraquat] | – | – | – | The spectra disappeared upon treatment with PQ and PMS | PQ was partially effective in oxidizing the [2Fe-2S] cluster
